According to patent US9617283B2, “Bicyclic heterocycle compounds and their uses in therapy” (ASTEX THERAPEUTICS LIMITED, priority 2012, dated 2017):
Where a name gives a salt, the structure may show the parent alone. Read-outs that look alike come from different tables or passages of the source.

Test system: EVSA-T (human breast carcinoma)
Assay: Anti-proliferative activity, Alamar Blue assay, EVSA-T
Assay type: cell-based
[1] = Homo sapiens, EVSA-T, 72 h, EVSA-T cell line, 72 hours, Alamar Blue, read-out: EVSA-T prolif
[2] = Homo sapiens, EVSA-T, read-out: EC50 in EVSA-T cell line assays
[3] = EVSA-T cell line, 72 hours, Alamar Blue, dihydrochloride, read-out: EVSA-T prolif
[4] = Homo sapiens, EVSA-T cell line, 72 hours, Alamar Blue, read-out: EVSA-T prolif

SMILES	EC50 [1]	EC50 [2]	EC50 [3]	EC50 [4]
CCC1CC(=O)N(C[C@H]2CN[C@H](C)CN2CC(=O)N2CC(C)(C)c3ncc(Cc4ccc(F)cc4)cc32)C1 (single isomer, unassigned) [Example 82, (4R or 4S)-4-Ethyl-1-{[(2R,5R)-1-(2-{6-[(4-fluorophenyl)methyl]-3,3-dimethyl-1H,2H,3H-pyrrolo[3,2-b]pyridin-1-yl}-2-oxoethyl)-5-methylpiperazin-2-yl]methyl}pyrrolidin-2-one dihydrochloride]	1.5 nM	< 1000 nM	–	–
CCC1CC(=O)N(C[C@H]2CN[C@H](C)CN2CC(=O)N2CC(C)(C)c3cnc(Cc4ccc(F)cc4F)cc32)C1 (single isomer, unassigned) [Example 83, (4R or 4S)-1-{[(2R,5R)-1-(2-{6-[(2,4-Difluorophenyl)methyl]-3,3-dimethyl-1H,2H,3H-pyrrolo[3,2-c]pyridin-1-yl}-2-oxoethyl)-5-methylpiperazin-2-yl]methyl}-4-ethylpyrrolidin-2-one dihydrochloride]	1.1 nM	< 1000 nM	–	–
CCC1CC(=O)N(C[C@H]2CN[C@H](C)CN2CC(=O)N2CC(C)(C)c3ncc(Cc4ccc(F)cc4)cc32)C1 (single isomer, unassigned) [Example 86, (4R or 4S)-4-Ethyl-1-{[(2R,5R)-1-(2-{6-[(4-fluorophenyl)methyl]-3,3-dimethyl-1H,2H,3H-pyrrolo[3,2-b]pyridin-1-yl}-2-oxoethyl)-5-methylpiperazin-2-yl]methyl}pyrrolidin-2-one dihydrochloride]	–	–	1.7 nM	–
CCC1CC(=O)N(C[C@H]2CN[C@H](C)CN2CC(=O)N2CC(C)(C)c3cnc(Cc4ccc(F)cc4F)cc32)C1 (single isomer, unassigned) [Example 87, (4R or 4S)-1-{[(2R,5R)-1-(2-{6-[(2,4-Difluorophenyl)methyl]-3,3-dimethyl-1H,2H,3H-pyrrolo[3,2-c]pyridin-1-yl}-2-oxoethyl)-5-methylpiperazin-2-yl]methyl}-4-ethylpyrrolidin-2-one dihydrochloride]	–	–	1.2 nM	–
CCCC(F)(F)c1cc2c(cn1)C(C)(C)CN2C(=O)CN1C[C@@H](C)NC[C@@H]1CN1CC(CC)OCC1=O (single isomer, unassigned) [Example 88, 4-{[(2R,5R)-1-{2-[6-(1,1-Difluorobutyl)-3,3-dimethyl-1H,2H,3H-pyrrolo[3,2-c]pyridin-1-yl]-2-oxoethyl}-5-methylpiperazin-2-yl]methyl}-(R or S)-6-ethylmorpholin-3-one dihydrochloride]	–	< 1000 nM	14 nM	–
CCCC(F)(F)c1cc2c(cn1)C(C)(C)CN2C(=O)CN1C[C@@H](C)NC[C@@H]1CN1CC(CC)OCC1=O (single isomer, unassigned) [Example 89, 4-{[(2R,5R)-1-{2-[6-(1,1-Difluorobutyl)-3,3-dimethyl-1H,2H,3H-pyrrolo[3,2-c]pyridin-1-yl]-2-oxoethyl}-5-methylpiperazin-2-yl]methyl}-(R or S)-6-ethylmorpholin-3-one dihydrochloride]	–	–	6.5 nM	–
C[C@@H]1CN(CC(=O)N2CC(C)(C)c3ncc(Cc4ccc(F)cc4)cc32)[C@@H](CN2CCOCCC2=O)CN1 [Example 2, 4-{[(2R,5R)-1-(2-{6-[(4-Fluorophenyl)methyl]-3,3-dimethyl-1H,2H,3H-pyrrolo[3,2-b]pyridin-1-yl}-2-oxoethyl)-5-methylpiperazin-2-yl]methyl}-1,4-oxazepan-5-one hydrochloride]	6.5 nM	< 1000 nM	–	–
C[C@@H]1CN(CC(=O)N2CC(C)(C)c3ncc(Cc4ccc(F)cc4)cc32)[C@@H](CN2C(=O)[C@@H]3CC[C@H]2C3)CN1 [Example 8, (1S,4R)-2-{[(2R,5R)-1-(2-{6-[(4-Fluorophenyl)methyl]-3,3-dimethyl-1H,2H,3H-pyrrolo[3,2-b]pyridin-1-yl}-2-oxoethyl)-5-methylpiperazin-2-yl]methyl}-2-azabicyclo[2.2.1]heptan-3-one dihydrochloride]	7.1 nM	< 1000 nM	–	–
C[C@@H]1CN(CC(=O)N2CC(C)(C)c3ncc(Cc4ccc(F)cc4)cc32)[C@@H](CN2C[C@@H](C)OC2=O)CN1 [Example 9, (5R)-3-{[(2R,5R)-1-(2-{6-[(4-Fluorophenyl)methyl]-3,3-dimethyl-1H,2H,3H-pyrrolo[3,2-b]pyridin-1-yl}-2-oxoethyl)-5-methylpiperazin-2-yl]methyl}-5-methyl-1,3-oxazolidin-2-one]	5.9 nM	< 1000 nM	–	–
C[C@@H]1CN(CC(=O)N2CC(C)(C)c3ncc(Cc4ccc(F)cc4)cc32)[C@@H](CN2CCC(F)(F)C2=O)CN1 [Example 11, 3,3-Difluoro-1-{[(2R,5R)-1-(2-{6-[(4-fluorophenyl)methyl]-3,3-dimethyl-1H,2H,3H-pyrrolo[3,2-b]pyridin-1-yl}-2-oxoethyl)-5-methylpiperazin-2-yl]methyl}pyrrolidin-2-one dihydrochloride]	–	–	–	4.3 nM
C[C@@H]1CN(CC(=O)N2CC(C)(C)c3ncc(Cc4ccc(F)cc4)cc32)[C@@H](CN2Cc3ncccc3C2=O)CN1 [Example 15, 6-{[(2R,5R)-1-(2-{6-[(4-Fluorophenyl)methyl]-3,3-dimethyl-1H,2H,3H-pyrrolo[3,2-b]pyridin-1-yl}-2-oxoethyl)-5-methylpiperazin-2-yl]methyl}-5H,6H,7H-pyrrolo[3,4-b]pyridin-5-onne dihydrochloride]	–	–	–	0.63 nM
C[C@@H]1CC(=O)N(C[C@H]2CN[C@H](C)CN2CC(=O)N2CC(C)(C)c3ncc(Cc4ccc(F)cc4)cc32)C1 [Example 16, (4R)-1-{[(2R,5R)-1-(2-{6-[(4-Fluorophenyl)methyl]-3,3-dimethyl-1H,2H,3H-pyrrolo[3,2-b]pyridin-1-yl}-2-oxoethyl)-5-methylpiperazin-2-yl]methyl}-4-methylpyrrolidin-2-one dihydrochloride]	6 nM	–	–	–
C[C@H]1CC(=O)N(C[C@H]2CN[C@H](C)CN2CC(=O)N2CC(C)(C)c3ncc(Cc4ccc(F)cc4)cc32)C1 [Example 17, (4S)-1-{[(2R,5R)-1-(2-{6-[(4-Fluorophenyl)methyl]-3,3-dimethyl-1H,2H,3H-pyrrolo[3,2-b]pyridin-1-yl}-2-oxoethyl)-5-methylpiperazin-2-yl]methyl}-4-methylpyrrolidin-2-one dihydrochloride]	3.1 nM	< 1000 nM	–	–
C[C@@H]1CN(CC(=O)N2CC(C)(C)c3ncc(Cc4ccc(F)cc4)cc32)[C@@H](CN2CC(=O)NCC2=O)CN1 [Example 22, 1-{[(2R,5R)-1-(2-{6-[(4-Fluorophenyl)methyl]-3,3-dimethyl-1H,2H,3H-pyrrolo[3,2-b]pyridin-1-yl}-2-oxoethyl)-5-methylpiperazin-2-yl]methyl}piperazine-2,5-dione]	9.2 nM	< 1000 nM	–	–
C[C@@H]1CN(CC(=O)N2CC(C)(C)c3ncc(Cc4ccc(F)cc4)cc32)[C@@H](CN2C(=O)CO[C@@H](C)[C@H]2C)CN1 [Example 25, (5R,6S)-4-{[(2R,5R)-1-(2-{6-[(4-Fluorophenyl)methyl]-3,3-dimethyl-1H,2H,3H-pyrrolo[3,2-b]pyridin-1-yl}-2-oxoethyl)-5-methylpiperazin-2-yl]methyl}-5,6-dimethylmorpholin-3-one, dihydrochloride]	1.9 nM	< 1000 nM	–	–
C[C@@H]1CN(CC(=O)N2CC(C)(C)c3ncc(Cc4ccc(F)cc4)cc32)[C@@H](CN2C[C@H](C)N(C)CC2=O)CN1 [Example 43, (5S)-1-{[(2R,5R)-1-(2-{6-[(4-Fluorophenyl)methyl]-3,3-dimethyl-1H,2H,3H-pyrrolo[3,2-b]pyridin-1-yl}-2-oxoethyl)-5-methylpiperazin-2-yl]methyl}-4,5-dimethylpiperazin-2-one dihydrochloride]	12 nM	< 1000 nM	–	–
C[C@H]1CC(=O)N(C[C@H]2CN[C@H](C)CN2CC(=O)N2CC(C)(C)c3nnc(Cc4ccc(F)cc4F)cc32)C1 [Example 46, (4S)-1-{[(2R,5R)-1-(2-{3-[(2,4-Difluorophenyl)methyl]-7,7-dimethyl-5H,6H,7H-pyrrolo[3,2-c]pyridazin-5-yl}-2-oxoethyl)-5-methylpiperazin-2-yl]methyl}-4-methylpyrrolidin-2-one dihydrochloride]	2.3 nM	< 1000 nM	–	–
C[C@H]1CC(=O)N(C[C@H]2CN[C@H](C)CN2CC(=O)N2CC(C)(C)c3nnc(Cc4ccc(F)cc4)cc32)C1 [Example 47, (4S)-1-{[(2R,5R)-1-(2-{3-[(4-Fluorophenyl)methyl]-7,7-dimethyl-5H,6H,7H-pyrrolo[3,2-c]pyridazin-5-yl}-2-oxoethyl)-5-methylpiperazin-2-yl]methyl}-4-methylpyrrolidin-2-one dihydrochloride]	2.9 nM	< 1000 nM	–	–
C[C@@H]1CN(CC(=O)N2CC(C)(C)c3nnc(Cc4ccc(F)cc4F)cc32)[C@@H](CN2C[C@H](C)OCC2=O)CN1 [Example 52, (6S)-4-{[(2R,5R)-1-(2-{3-[(2,4-Difluorophenyl)methyl]-7,7-dimethyl-5H,6H,7H-pyrrolo[3,2-c]pyridazin-5-yl}-2-oxoethyl)-5-methylpiperazin-2-yl]methyl}-6-methylmorpholin-3-one]	–	< 1000 nM	–	–
C[C@@H]1CN(CC(=O)N2CC(C)(C)c3nnc(Cc4ccc(F)cc4)cc32)[C@@H](CN2C[C@H](C)OCC2=O)CN1 [Example 53, (6S)-4-{[(2R,5R)-1-(2-{3-[(4-Fluorophenyl)methyl]-7,7-dimethyl-5H,6H,7H-pyrrolo[3,2-c]pyridazin-5-yl}-2-oxoethyl)-5-methylpiperazin-2-yl]methyl}-6-methylmorpholin-3-one]	–	< 1000 nM	–	–
CCCC(F)(F)c1cc2c(nn1)C(C)(C)CN2C(=O)CN1C[C@@H](C)NC[C@@H]1CN1CC(C)(C)CC1=O [Example 55, 1-{[(2R,5R)-1-{2-[3-(1,1-Difluorobutyl)-7,7-dimethyl-5H,6H,7H-pyrrolo[3,2-c]pyridazin-5-yl]-2-oxoethyl}-5-methylpiperazin-2-yl]methyl}-4,4-dimethylpyrrolidin-2-one]	–	< 1000 nM	–	–
